From patent US20230090552A1, “ALK5 INHIBITOR CONJUGATES AND USES THEREOF” (Synthis Therapeutics, Inc., priority 2020, published 2023)

Tests used:
IPF disease progression = settings: patients with mild-moderate disease; cited from earlier work
ALK5 = biological target: T1, ALK5 (Homo sapiens, UniProt P36897); assay: recombinant kinase assays (IC50 and Ki); type: biochemical; settings: versus Compound N
T1 sequence (P36897 34-503): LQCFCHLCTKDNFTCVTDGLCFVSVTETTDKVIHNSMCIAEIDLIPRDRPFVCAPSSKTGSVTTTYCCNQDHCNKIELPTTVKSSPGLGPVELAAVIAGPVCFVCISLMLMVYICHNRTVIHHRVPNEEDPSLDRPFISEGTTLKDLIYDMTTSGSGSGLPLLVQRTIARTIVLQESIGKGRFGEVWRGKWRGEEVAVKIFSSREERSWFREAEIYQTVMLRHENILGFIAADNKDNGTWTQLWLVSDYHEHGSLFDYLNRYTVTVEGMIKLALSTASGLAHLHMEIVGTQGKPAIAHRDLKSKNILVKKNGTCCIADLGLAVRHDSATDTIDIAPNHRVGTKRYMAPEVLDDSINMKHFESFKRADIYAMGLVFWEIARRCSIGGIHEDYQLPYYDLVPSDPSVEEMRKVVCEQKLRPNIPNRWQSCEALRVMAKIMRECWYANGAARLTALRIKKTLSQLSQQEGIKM
Text: Compound N was compared to Compound C in a number of in vitro assays.

## Cc1ccc(=O)n(-c2ccccc2)c1 [pirfenidone]
IPF disease progression
  reduced risk of IPF disease progression: 50%

## COC(=O)c1ccc2c(c1)NC(=O)/C2=C(\Nc1ccc(N(C)C(=O)CN2CCN(C)CC2)cc1)c1ccccc1 [nintedanib]
IPF disease progression
  reduced risk of IPF disease progression: 50%

## CNCCOc1ccc(-c2cc(-c3c[nH]nc3-c3cccc(C)n3)ccn2)cc1 [Compound C, N-methyl-2-(4-(4-(3-(6-methylpyridin-2-yl)-1H-pyrazol-4-yl)pyridin-2-yl)phenoxy)ethan-1-amine]
ALK5
  fold more potent than Compound N in the kinase assays: 10 fold
